The text below walks through data of patent publication US20170022242A1, “NOVEL ANTIVIRAL AND ANTITUMORAL COMPOUNDS” (KATHOLIEKE UNIVERSITEIT LEUVEN, KU LEUVEN R&D, priority 2014, published 2017).

Read-outs that look alike come from different tables or passages of the source.

Data set [1] relates to ET (luc-ubi-neo/ET) Huh7 human hepatoma cell line.
The next data set has as its system HCV1b/Con1 replicon. The data set can be described thus: HCV replicon antiviral evaluation assay (Luc reporter). It counts as cell-based. The settings on record: concentration inhibiting HCV replicon by 50%, Huh7 ET cells, 72 hr. (A replicon is a self-replicating genome or part of one, used to study replication in cells.)
The subject of data set [2] is ET (luc-ubi-neo/ET) Huh7 human hepatoma cell line. Kind of data set: Cytotoxicity, CytoTox-1 cell proliferation assay of cell numbers. The settings on record: concentration decreasing cell viability by 50%; Huh7 ET cells, 72 hr; Table 1.
Test in data set [3]: as above
As to conditions: human.

Where [4] appears, read: Table 1, 2′-C-methyl nucleoside phosphoramidates.
Where [5] appears, read: Hepatitis C virus, Table 1, 2′-C-methyl nucleoside phosphoramidates.

In the case of `CCCCOC(=O)C[C@H](NP(=O)(OCC1OC(n2ccc(=O)[nH]c2=O)C(C)(O)C1O)Oc1ccccc1)C(=O)OCCCC` (stereo partly drawn) [Cmpd 17d, 2′-C-Methyl-uridine-5′-[phenyl-bis(n-butyl-aspartyl)]phosphate], half-maximal cytotoxicity in data set [1] (CC50) was put at 4.64 µM. Further, the EC50 – broadly, the concentration giving half of the maximal effect – in the data set with HCV1b/Con1 replicon (setting [4]) is 0.04 µM.
For `COC(=O)[C@H](CC(=O)OCc1ccccc1)NP(=O)(OCC1OC(n2ccc(=O)[nH]c2=O)C(C)(O)C1O)Oc1ccccc1` (stereo partly drawn) [Cmpd 17b, 2′-C-methyluridine-5′-[phenyl-(α-methoxy-β-benzyloxy-aspartyl)]phosphate], the EC50 in the data set with HCV1b/Con1 replicon (setting [4]) was determined as 0.26 µM. In addition, the CC50 – broadly, the concentration giving 50% cytotoxicity – in data set [2] stood at 43.4 µM.
Compound `C[C@@]1(O)[C@H](O)[C@@H](CO)O[C@H]1n1ccc(=O)[nH]c1=O` [Cmpd 5, 2′-C-methyluridine, reference compound] showed an EC50 in the data set on HCV1b/Con1 replicon (setting [5]) of 6.31 µM. The compound also yielded a CC50 at 72 h in data set [3] greater than 100 µM.
In the case of `CC(C)CCOC(=O)C[C@H](NP(=O)(OCC1OC(n2ccc(=O)[nH]c2=O)C(C)(F)C1O)Oc1ccccc1)C(=O)OCCC(C)C` (stereo partly drawn) [Cmpd 23a, 2′-Deoxy-2′-fluoro-2′-C-methyl-uridine-5′-[phenyl-bis(isoamyl-aspartyl)]phosphate], the CC50 in data set [1] came to 27.7 µM. In the data set on HCV1b/Con1 replicon (Table 2, 2′-F-nucleoside phosphoramidates), this compound came in with an EC50 of 0.06 µM.
Take `C[C@@]1(O)[C@H](O)[C@@H](CO)O[C@H]1n1ccc(N)nc1=O` [Cmpd 4, 2′-C-methylcytidine, reference compound]: the EC50 with HCV1b/Con1 replicon (setting [5]) was 1.34 µM. In data set [3], the CC50 at 72 h is greater than 100 µM.
Regarding `CCCCOC(=O)C[C@H](NP(=O)(OC[C@H]1O[C@@H](n2ccc(N)nc2=O)[C@](C)(O)[C@@H]1O)Oc1ccccc1)C(=O)OCCCC` (stereo partly drawn) [Cmpd 16d, 2′-C-Methylcytidine-5′-[phenyl-bis(n-butyl-aspartyl)]phosphate], the EC50 with HCV1b/Con1 replicon (setting [4]) was determined as 0.26 µM. Also, the CC50 in data set [2] worked out at 30.9 µM.
In data set [1], `CC(C)CCOC(=O)C[C@H](NP(=O)(OCC1OC(n2ccc(=O)[nH]c2=O)C(C)(F)C1O)Oc1ccccc1)C(=O)OCCC(C)C` (stereo partly drawn) [Mixture 23a/23b, 2′-Deoxy-2′-fluoro-2′-C-methyl-uridine-5′-[phenyl-bis(isoamyl-aspartyl)]phosphate] registered a CC50 of 33.1 µM.
In the data set with HCV1b/Con1 replicon (setting [4]), `COC(=O)C[C@H](NP(=O)(OCC1OC(n2ccc(=O)[nH]c2=O)C(C)(O)C1O)Oc1ccccc1)C(=O)OC` (stereo partly drawn) [Cmpd 17a, 2′-C-methyluridine-5′-[phenyl-bis(methoxy-aspartyl)]phosphate] had a 50% effective concentration (EC50) of 1.13 µM. This compound came in with a CC50 in data set [2] greater than 100 µM.
`CC(C)CCOC(=O)C[C@H](NP(=O)(OCC1OC(n2ccc(=O)[nH]c2=O)C(C)(O)C1O)Oc1ccccc1)C(=O)OCCC(C)C` (stereo partly drawn) [Cmpd 17f, 2′-C-Methyl-uridine-5′-[phenyl-bis(isoamyl-aspartyl)]phosphate]: the CC50 in data set [1] is 10 µM. In the data set on HCV1b/Con1 replicon (setting [4]), this compound registered an EC50 of 0.03 µM.
Consider `CC(C)OC(=O)C[C@H](NP(=O)(OCC1OC(n2ccc(N)nc2=O)C(C)(O)C1O)Oc1ccccc1)C(=O)OC(C)C` (stereo partly drawn) [Cmpd 16c, 2′-C-Methylcytidine-5′-[1-phenyl-bis(isopropyl-aspartyl)]phosphate], for which, in the data set with HCV1b/Con1 replicon (setting [4]), the midpoint of the response, the EC50, lay at 0.96 µM. This compound also yielded a CC50 in data set [2] greater than 100 µM.
As for `CCCCCOC(=O)C[C@H](NP(=O)(OCC1OC(n2ccc(=O)[nH]c2=O)C(C)(O)C1O)Oc1ccccc1)C(=O)OCCCCC` (stereo partly drawn) [Cmpd 17e, 2′-C-Methyl-uridine-5′-[phenyl-bis(amyl-aspartyl)]phosphate], half-maximal cytotoxicity in data set [1] (CC50) was put at 7.11 µM. Moreover, the midpoint of the response in the data set on HCV1b/Con1 replicon (setting [4]), the EC50, lay at 0.03 µM.
In data set [1], `CC(C)OC(=O)C[C@H](NP(=O)(OCC1OC(n2ccc(=O)[nH]c2=O)C(C)(O)C1O)Oc1ccccc1)C(=O)OC(C)C` (stereo partly drawn) [Cmpd 17c, 2′-C-Methyl-uridine-5′-[1-phenyl-bis(isopropyl-aspartyl)]phosphate] displayed a CC50 of 35.7 µM. The midpoint of the response with HCV1b/Con1 replicon (setting [4]), the EC50, lay at 0.29 µM.
The compound `COC(=O)[C@H](CC(=O)OCc1ccccc1)NP(=O)(OCC1OC(n2ccc(N)nc2=O)C(C)(O)C1O)Oc1ccccc1` (stereo partly drawn) [Cmpd 16b, 2′-C-methylcytidine-5′-[phenyl-(α-methoxy-β-benzyloxy-aspartyl)]phosphate] registered an EC50 in the data set with HCV1b/Con1 replicon (setting [4]) of 1.32 µM. The same compound gave a CC50 in data set [2] greater than 100 µM.
`C[C@@]1(F)[C@H](O)[C@@H](CO)O[C@H]1n1ccc(=O)[nH]c1=O` [Cmpd 22, 2′-deoxy-2′-fluoro-2′-C-methyluridine, reference compound] gave an EC50 with HCV1b/Con1 replicon (Hepatitis C virus, Table 2, 2′-F-nucleoside phosphoramidates) greater than 100 µM. This compound also returned a CC50 at 72 h in data set [3] greater than 100 µM.
For `COC(=O)C[C@H](NP(=O)(OCC1OC(n2ccc(N)nc2=O)C(C)(O)C1O)Oc1ccccc1)C(=O)OC` (stereo partly drawn) [Cmpd 16a, 2′-C-methylcytidine-5′-[phenyl-bis(methoxy-aspartyl)]phosphate], the EC50 in the data set with HCV1b/Con1 replicon (setting [4]) turned out to be 3.71 µM. In data set [2], the CC50 is greater than 100 µM.
For `CC(C)CCOC(=O)C[C@H](NP(=O)(OCC1OC(n2ccc(N)nc2=O)C(C)(O)C1O)Oc1ccccc1)C(=O)OCCC(C)C` (stereo partly drawn) [Cmpd 16f, 2′-C-Methylcytidine-5′-[phenyl-bis(isoamyl-aspartyl)]phosphate] the same measures were 0.05 µM and 9.54 µM.
In data set [1], `CCCCCOC(=O)C[C@H](NP(=O)(OCC1OC(n2ccc(N)nc2=O)C(C)(O)C1O)Oc1ccccc1)C(=O)OCCCCC` (stereo partly drawn) [Cmpd 16e, 2′-C-Methyl-cytidine-5′-[phenyl-bis(amyl-aspartyl)]phosphate] yielded a CC50 of 9.53 µM. The compound also displayed an EC50 with HCV1b/Con1 replicon (setting [4]) of 0.05 µM.
